Consider 4 compounds from paper PMC10107917 (ACS Medicinal Chemistry Letters, 2023).

The term Ki denotes a measure of affinity in units of concentration, obtained from inhibition or displacement. In general, IC50 refers to the midpoint of a concentration-inhibition curve.

For the test, the target named is T1, human recombinant furin (Homo sapiens, UniProt P09958).
T1 construct: Soluble human recombinant furin was kindly gifted; gift of Dr Anna Kwiatkowska (group of Prof. Robert Day, Université de Sherbrooke)
T1 sequence (P09958 108-715 limits assumed): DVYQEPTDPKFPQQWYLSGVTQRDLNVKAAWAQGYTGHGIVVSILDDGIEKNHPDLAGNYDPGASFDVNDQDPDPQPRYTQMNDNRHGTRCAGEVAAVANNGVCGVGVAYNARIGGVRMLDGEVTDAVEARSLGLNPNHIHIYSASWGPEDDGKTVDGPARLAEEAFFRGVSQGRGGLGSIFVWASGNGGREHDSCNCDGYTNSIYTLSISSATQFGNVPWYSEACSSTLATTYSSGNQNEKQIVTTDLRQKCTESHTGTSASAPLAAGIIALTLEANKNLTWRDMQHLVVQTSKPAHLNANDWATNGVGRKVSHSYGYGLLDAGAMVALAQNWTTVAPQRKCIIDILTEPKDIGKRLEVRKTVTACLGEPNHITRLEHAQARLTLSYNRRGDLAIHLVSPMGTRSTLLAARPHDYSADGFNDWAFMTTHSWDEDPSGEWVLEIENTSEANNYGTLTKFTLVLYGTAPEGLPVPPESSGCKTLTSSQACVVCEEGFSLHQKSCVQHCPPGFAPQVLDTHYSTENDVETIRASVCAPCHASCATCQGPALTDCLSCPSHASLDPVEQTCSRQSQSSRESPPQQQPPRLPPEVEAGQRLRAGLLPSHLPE
The test is classed as biochemical. Particulars: for Ki / IC50: ± SEM; for Ki: Cheng-Prusoff from IC50, competitive mode assumed, Km 1.90 µM; for IC50: triplicate, substrate 20 µM. How it is done:
Initially, the activities of the furin inhibitors were screened at three concentrations, i.e., 2.4, 24.0, and 77.0 nM (Figure 4). For selected peptides 3, 5, and 6 and the reference FI, the inhibitory constants (Ki) were calculated (Table 2). Except for the bicyclic peptide 4, all of the inhibitors almost completely abolished the enzyme activity at the highest tested concentration. Peptide 4 was explicitly the weakest inhibitor in the series, also when compared with its monocyclic disulfide-bridged counterpart 1. When the inhibitory activities were analyzed at the lowest tested concentration (2.4 nM), three peptides (3, 5, and 6) reduced the furin activity to less than 50% of its initial noninhibited activity. All of them have an additional basic amino acid at their N-termini (in MD simulations this is depicted as a residue with number “0”). […] Such close inhibitory potency was not observed in the case of an analogous pair, i.e., 2 and 5. […] The two disulfide-bridged peptides, FI and 1, differ only at the P4 position, having Lys and Arg, respectively. […]
The IC50 values (inhibitor concentrations giving 50% inhibition of enzyme activity) were calculated from plots of enzyme activity (% of control sample) versus the inhibitor’s concentration using a four-parameter fit model (GraFit 5.0.12 Erithacus Software Ltd.). The IC50 values were determined from triplicate measurements with at least seven different inhibitor concentrations. The K i values […] were calculated using the Cheng-Prusoff equation, assuming the competitive mode of inhibition, according to the following relationship: IC50 = K i(1+S/Km). All measurements were performed using a Fluostar Omega microplate reader (BMG Labtech, Germany) and 96-well black plates (BRAND, Germany). Recombinant human matriptase-1/ST14 catalytic domain was purchased from R&D Systems, USA. Recombinant human matriptase-2 was obtained from Enzo Life Sciences, Switzerland.
Soluble human recombinant furin was kindly gifted by Dr Anna Kwiatkowska (group of Prof. Robert Day from Université de Sherbrooke).4
The following assay buffers were used: […] (matriptase-1 and matriptase-2), pH 7.5 100 mM HEPES with 1 mM CaCl 2 and 1.8 mg/mL BSA (furin). The substrates used in the assays were as follows: for matriptase-1 and matriptase-2 Boc-Gln-Ala-Arg-AMC (Pepta Nova, Germany) in final concentration of 5 µM, for furin […] (Pepta Nova, Germany) in final concentration of 20 µM. Enzymes concentrations were as follows: 1.25 ng/mL of matriptase-1, 1.51 U/mL for matriptase-2, and 1.1 nM for furin. In the case of matriptase-1 and matripase-2 concentrations were calculated according to information provided by the suppliers.
In short, the tested compounds were added to the appropriate protease in different concentrations and incubated in an assay buffer at 37 °C for 30 min. After this time, a solution of appropriate substrate was added. Reactions were monitored for at least 40 min at 37 °C. The final volume in each well was 200 µL for matriptases and 100 µL for furin. Measurements were carried out using excitation and emission wavelengths of 380 nm and 450 nm. The percentage inhibition of an enzyme was calculated relative to the control sample without an inhibitor. The K m value for furin substrate was determined by incubating the enzyme with its substrate in various concentrations as recommended.5 Plots of the substrate concentration versus the initial reaction velocity were analyzed according to Michaelis-Menten equation using GraFit 5.0.12 Erithacus Software Ltd. A double reciprocal (Lineweaver-Burk) plot was used to determine the Michaelis constant K m value. K m value determined for furin was 1.90 µM.
Total furin-like enzyme inhibition/activity in PANC-1 cell lysates
Cell line and cell culture. The pancreatic cancer cell line, PANC-1, was obtained from the American Type Culture Collection, ATCC (Manassas, USA). […]

Where two headings read alike, the source gives them in different places. Bridge positions count the residues as written; N and C are the ends. Peptide text beside a SMILES is read from it.

For `CC[C@H](C)[C@@H]1NC(=O)[C@@H]2CCCN2C(=O)[C@@H]2CCCN2C(=O)[C@H]([C@@H](C)CC)NC(=O)[C@H](CO)NC(=O)[C@H](CCCCN)NC(=O)[C@H](CCCCN)NC(=O)[C@@H]2CSSC[C@H](NC1=O)C(=O)N[C@@H](Cc1ccccc1)C(=O)N[C@@H](CCCCN)C(=O)N[C@@H](CCCNC(=N)N)C(=O)N[C@@H](CCCNC(=N)N)C(=O)N2` [inhibitor 5, &^1Lys-Arg-Arg-Cys(&^2)-Lys-Lys-Ser-Ile-Pro-Pro-Ile-Cys(&^2)-Phe&^1] (cyclo(KRRCKKSIPPICF); disulfide 4-12), the Ki was determined as 0.21 ± 0.01 nM and the IC50 worked out at 2.41 ± 0.12 nM.

As for `CC[C@H](C)[C@@H]1NC(=O)[C@@H]2CCCN2C(=O)[C@@H]2CCCN2C(=O)[C@H]([C@@H](C)CC)NC(=O)[C@H](CO)NC(=O)[C@H](CCCCN)NC(=O)[C@H](CCCCN)NC(=O)[C@@H](NC(=O)[C@H](CCCNC(=N)N)NC(=O)[C@@H](N)CCCCN)CSSC[C@@H](C(=O)N[C@@H](Cc2ccccc2)C(N)=O)NC1=O` [FI, Lys-Arg-Cys(&)-Lys-Lys-Ser-Ile-Pro-Pro-Ile-Cys(&)-Phe-NH2, reference compound] (H-KRCKKSIPPICF-NH2; disulfide 3-11; N-terminus assumed), the Ki was 0.38 ± 0.02 nM and the IC50 came out at 4.42 ± 0.22 nM. Further, under “inhibitor 2.4 nM”, the “furin activity versus control with no inhibitor added” value is listed as 66.76%. In addition, for the setting “inhibitor 24.0 nM”, the “furin activity versus control with no inhibitor added” value is 9.86%. Also, the “furin activity versus control with no inhibitor added” value (inhibitor 77.0 nM (highest tested concentration)) stood at 0.31%.

As to `CC[C@H](C)[C@@H]1NC(=O)[C@@H]2CCCN2C(=O)[C@@H]2CCCN2C(=O)[C@H]([C@@H](C)CC)NC(=O)[C@H](CO)NC(=O)[C@H](CCCCN)NC(=O)[C@H](CCCCN)NC(=O)[C@@H]2CSSC[C@H](NC1=O)C(=O)N[C@@H](Cc1ccccc1)C(=O)N[C@@H](CCCNC(=N)N)C(=O)N[C@@H](CCCNC(=N)N)C(=O)N[C@@H](CCCNC(=N)N)C(=O)N2` [inhibitor 6, &^1Arg-Arg-Arg-Cys(&^2)-Lys-Lys-Ser-Ile-Pro-Pro-Ile-Cys(&^2)-Phe&^1] (cyclo(RRRCKKSIPPICF); disulfide 4-12), the Ki was 0.25 ± 0.01 nM and the IC50 came to 2.91 ± 0.17 nM.

For the compound `CC[C@H](C)[C@@H]1NC(=O)[C@@H]2CCCN2C(=O)[C@@H]2CCCN2C(=O)[C@H]([C@@H](C)CC)NC(=O)[C@H](CO)NC(=O)[C@H](CCCCN)NC(=O)[C@H](CCCCN)NC(=O)[C@@H](NC(=O)[C@H](CCCNC(=N)N)NC(=O)[C@H](CCCNC(=N)N)NC(=O)[C@@H](N)CCCNC(=N)N)CSSC[C@@H](C(=O)N[C@@H](Cc2ccccc2)C(N)=O)NC1=O` [inhibitor 3, Arg-Arg-Arg-Cys(&)-Lys-Lys-Ser-Ile-Pro-Pro-Ile-Cys(&)-Phe-NH2] (H-RRRCKKSIPPICF-NH2; disulfide 4-12), the Ki worked out at 0.27 ± 0.02 nM and the IC50 was found to be 3.07 ± 0.2 nM.
